Test results from patent US8969392B2, “Pesticide composition comprising propamocarb-fosetylate and an insecticidally active substance” (Bayer Cropscience AG, priority 2006, dated 2015).

Legend:
Myzus persicae = Myzus persicae test (cabbage leaf dip, mortality); assay type: in vivo; details: mortality after 6 days, cabbage leaves dipped
Experimental: (§1) To produce a suitable preparation of active compound, 1 part by weight of active compound is mixed with the stated amount of solvent and emulsifier, and the concentrate is diluted with emulsifier-containing water to the desired concentration.
Cabbage leaves (Brassica oleracea) which are heavily infested by the green peach aphid (Myzus persicae) are treated by being dipped into the preparation of the active compound at the desired concentration.
After a period of time of 6 days, the mortality is determined. 100% means that all the […] have been killed; 0% means that none of the […] have been killed.

Plutella xylostella = Plutella xylostella test (cabbage leaf dip, larvae, mortality); assay type: in vivo; details: mortality after 6 days, cabbage leaves dipped
Experimental: as §1
Cabbage leaves (Brassica oleracea) are treated by being dipped into the preparation of the active compound at the desired concentration and are infested with larvae of the diamond black moth Plutella xylostella as long as the leaves are still moist.
After a period of time of 6 days, the mortality is determined. 100% means that all the caterpillars have been killed; 0% means that none of the caterpillars have been killed.

Phaedon cochleariae = Phaedon cochleariae test (cabbage leaf dip, larvae, mortality); assay type: in vivo; details: mortality after 4 days, cabbage leaves dipped
Experimental: as §1
Cabbage leaves (Brassica oleracea) are treated by being dipped into the preparation of the active compound at the desired concentration and are infested with larvae of the mustard beetle Phaedon cochleariae as long as the leaves are still moist.
After a period of time of 4 days, the mortality is determined. 100% means that all the […] have been killed; 0% means that none of the […] have been killed.

Plasmopara viticola = details: straight use of the compound; WO-99/42468; cited from earlier work

## CN/C(=N\[N+](=O)[O-])NCc1cnc(Cl)s1 [Clothianidin, clothianidin]
Myzus persicae; rate of application 0.8 ppm
  Efficacy (%): 75%

## CCCOC(=O)NCCCN(C)C.CCO[PH](=O)O [Propamocarb-fosetylate, dimethyl-[3-(propoxycarbonylamino)propyl]ammonium-O-ethylphosphonate]
Plutella xylostella; rate of application 200 ppm
  Efficacy (%): 0%
Phaedon cochleariae; rate of application 200 ppm
  Efficacy (%): 5%
Myzus persicae; rate of application 200 ppm
  Efficacy (%): 0%
Plasmopara viticola
  fungicide activity to control Plasmopara viticola: Some fungicide activity

## N#C/N=C1\SCCN1Cc1ccc(Cl)nc1 [thiacloprid]
Plutella xylostella; rate of application 20 ppm
  Efficacy (%): 20%

## O=[N+]([O-])NC1=NCCN1Cc1ccc(Cl)nc1 [Imidacloprid, imidacloprid]
Phaedon cochleariae; rate of application 20 ppm
  Efficacy (%): 80%
